Measurements reported in a melting point compilation (Tetko et al.).

Structure (SMILES)	melting point
Cc1cccc(C)c1NC(=O)CN1CCN(CCCC(c2ccc(F)cc2)c2ccc(F)cc2)CC1	159 °C
C1CCCC2OC2CC1 (stereo not drawn)	53 to 56 °C
O=C1c2ccccc2C(=O)N1c1cn[nH]c1	259 to 260 °C
CC1C=CCCC1 (stereo not drawn)	-124 °C
Cc1nnc2sc(SCC(=O)O)nn2c1=O	201 °C
CCCCCC(O)CCCCC	25 °C
COC(=O)c1cc(Br)ccc1N	72 °C
Nc1ncn(C2OC(CO)C(O)C2O)c(=O)n1 (stereo not drawn)	229 °C
COc1c2occc2c(OC)c2c(=O)cc(C)oc12	155 °C
CCc1c(Br)c(Br)c(Br)c(Br)c1Br	138 °C
CCCCCCCCOC(=O)CCCCCCC	-18.1 °C
O=[N+]([O-])c1ccc(OCCCBr)cc1	56 to 58 °C
COC(=O)C(C#N)=c1sc(=C(C#N)C(=O)OC)s1	235 to 250 °C
ON=Cc1ccco1	78 to 80 °C
Cc1c(C)c(C)c2c(c1C)CCC2=O	154 °C
CN(C)Cc1c[nH]c2ccccc12	138 °C
CC(C)(C)OC(=O)NC(Cc1ccccc1)C(=O)NN (stereo not drawn)	131 to 136 °C
CC(=O)OC1OC(=O)c2ccccc21 (stereo not drawn)	71 °C
NC(CC(=O)O)c1ccc(Cl)cc1 (stereo not drawn)	243 to 245 °C
O=C1OC(CO)C(O)C1O (stereo not drawn)	83 to 85 °C
CCCOc1c(Cl)cc(C(=O)O)cc1Cl	129 to 132 °C
COC(=O)c1cc2oc(C=O)cc2n1C	162 to 163 °C
Oc1ncnc2[nH]ncc12	350 °C

Structure (SMILES)	melting point
CS(=O)(=O)c1ccc(S(=O)(=O)Cl)cc1	160 °C
CC(O)=NNC(N)=O	165 °C
CC(C)(C)OC(=O)C(C)(C)Sc1ccc(Cl)cc1	44 to 46 °C
COc1ccc(C(=O)NNC(=O)c2cccc3ccccc23)cc1	189 °C
Cc1cccc(C)c1NC(=O)C=CC(=O)O	169 °C
CCCCCOc1ccc(C(=O)O)cc1	123 to 127 °C
Cc1ccc(N)c(Br)c1	26 °C
O=C(Cl)c1cc(Cl)nc2ccc(Br)cc12	140 to 142 °C
CC(C)(C)OC(=O)c1cccc(N)c1	81 to 83 °C
CN(C)c1ccc(N=C=O)cc1	38 °C
N#Cc1cc([N+](=O)[O-])ccc1Sc1ccc(Cl)cc1	167 to 168 °C
O=C1c2cc3ccccc3cc2-c2ccc3ccccc3c21	214 °C
OCc1cccnc1Cl	54 to 55 °C
O=C(O)c1ccc(-c2ncccn2)cc1	238 to 240 °C
O=C(O)/C(=C/c1cccc2ccccc12)c1ccccc1	160 to 161 °C
COc1c(C(C)(C)C(C)C)c2nc3ccccc3nc2c2ccccc12	88.6 °C
NS(=O)(=O)c1cccc(Cl)c1	146 °C
NN=C(C(=O)c1ccccc1)c1ccccc1	147 to 151 °C
O=C(NC(Cc1cccnc1)C(=O)O)OCC1c2ccccc2-c2ccccc21 (stereo not drawn)	166 °C
CC(NC(=O)CCCCN1C(=O)c2ccccc2C1=O)[P+]([O-])(Oc1ccccc1)Oc1ccccc1 (stereo not drawn)	144 °C
N#CC(C#N)=c1ccc(=C(C#N)C#N)cc1	287 to 289 °C
CC(=O)N[Si](C)(C)C	41 °C
CN(C)C(=O)[C@@H]1OC(C)(C)O[C@H]1C(=O)N(C)C	88 to 91 °C

Structure (SMILES)	melting point
CC12CCC(=O)C=C1CCC1C2CCC2(C)CCCC12O (stereo not drawn)	180 °C
FC(Cl)(Cl)c1ccccc1	-26.8 °C
CC1CCC2(O)C(C)(C)C3CCC2(C)C1C3 (stereo not drawn)	56 °C
O=C1COc2cccnc2N1	206 °C
O=C(C1=NOC2C(=O)N(c3cccc([N+](=O)[O-])c3)C(=O)C12)c1cccc2ccccc12 (stereo not drawn)	191 °C
COC(=O)C1=NC(C)(C)[N+]([O-])=C1	80 to 83 °C
Oc1ccc2ncccc2c1	190 to 195 °C
CCCCCCn1c(=O)c2c(ncn2C)n(C)c1=O	82 °C
Clc1cccc2c(C#Cc3ccccc3)c3ccccc3c(C#Cc3ccccc3)c12	199 to 204 °C
CC1CCC(C(C)C)C(OC(=O)c2ccc(C(=O)OC3CC(C)CCC3C(C)C)cc2)C1 (stereo not drawn)	75 °C
CCCNC(=O)C(C(F)(F)F)C(F)(F)F	105 to 107 °C
O=C(c1ccc(O)cc1)c1ccc(Cl)cc1	180 °C
CCCCC(=O)NC	-26 °C
O=C1CCc2cc(OCCCCc3nnnn3C3CCCCC3)ccc2N1	160 °C
COc1ccc2[nH]cc(CCN(C(C)C)C(C)C)c2c1	181 °C
CC(=O)NCCc1c[nH]c2ccc(O)cc12	120 to 122 °C
O=c1[nH]ccc(=S)[nH]1	295 °C
CCOC(O)C(Cl)(Cl)Cl (stereo not drawn)	56.5 °C
N[C@H](Cc1ccc(I)cc1)C(=O)O	251 °C
O=Cc1cc([N+](=O)[O-])ccc1N1CCCC1	136 to 138 °C
COc1ccc(N=C=S)cc1OC	48 °C
CC(=O)C=Cc1ccc(C=CC(C)=O)cc1	163 °C
CCNc1cc(NC(C)=O)ccc1C	107 to 109 °C

Structure (SMILES)	melting point
O=C(O)C=CC(=O)Nc1ccc(Cl)cc1Cl	178 °C
COc1cc(N=C=S)cc(OC)c1	50.5 °C
O=C(c1ccc(F)cc1)C(F)(F)F	24 to 27 °C
O=[N+]([O-])c1cn[nH]c1	161 °C
Nc1ccccc1N1CCCCC1	46 °C
CC(CCC(=O)O)C1CCC2C3C(=O)CC4CC(=O)CCC4(C)C3CC(=O)C12C (stereo not drawn)	237 °C
O=C(Cc1ccccc1)C(Cc1ccccc1)=NNc1ccccc1	137 °C
NNC(=S)NN	168 to 172 °C
Nc1ccc2c(C(F)(F)F)cc(=O)oc2c1	223 °C
O=C(O)CCSSCCC(=O)O	158 °C
CC(=O)c1cc(C(C)=O)c(N)cc1N	235 °C
O=C=NCCCCCCN=C=O	-67 °C
OCc1cc(C(F)(F)F)ccc1Cl	59 °C
Cc1ccc(C(O)c2ccccc2O)cc1 (stereo not drawn)	105 °C
COc1ccc2cc(CCC(C)=O)ccc2c1	80 °C
CCc1cc(C#N)ccc1N	63 °C
O=c1oc2c(o1)=C(c1ccccc1)S(=O)(=O)C=2c1ccccc1	227 °C
CC(=Nn1c(S)nnc1C(F)(F)F)c1ccc(C)cc1	201 °C
c1ccc2c(c1)ccc1ccc3ccc4ccc5cccnc5c4c3c12	270 °C
Oc1ccc(Cl)nc1	155 °C
COc1ccccc1N1CCN(CCCC(=O)c2ccc(F)cc2)CC1	67.5 °C
FC1(F)C(F)(F)C(F)(F)C1(F)F	-40.1 °C
O=S1(=O)OC(Cl)c2ccccc21 (stereo not drawn)	110 to 116 °C

Structure (SMILES)	melting point
O=C1CCC2C3CCC(=O)C3C12 (stereo not drawn)	65 to 69 °C
CCOC(=O)CNc1cc(NCC(=O)OCC)c([N+](=O)[O-])cc1[N+](=O)[O-]	198 °C
CCCCCCCCCc1ccccc1	-24 °C
CC(CCC(=O)O)C1CCC2C3C(=O)CC4CC(C(=O)O)CCC4(C)C3CC(C(=O)O)C12C (stereo not drawn)	207 to 209 °C
COc1cc(C(c2ccc(C)o2)c2ccc(C)o2)c([N+](=O)[O-])cc1OC	98 °C
CC(=O)c1cc2c(cc1N)OCO2	168 to 171 °C
COc1ccc2c(c1)CC1(CCC(=O)CC1)C2=O	93 °C
COc1ccc2ccccc2c1Br	80 °C
COc1ccc(C(=O)O)c(C(F)(F)F)c1	149 °C
CC1CCCC(O)C1 (stereo not drawn)	-5.5 °C
N#CCc1ccccc1OCc1ccccc1	77 °C
N#CCn1cnc(Cl)c1Cl	95 to 99 °C
CC(C)OC(=O)C(O)(c1ccc(Cl)cc1)c1ccc(Cl)cc1	73 °C
c1ccc2cc3c4ccccc4c4ccccc4c3cc2c1	206 °C
NC(=O)NC=O	170 to 173 °C
C=C(C)CNC(=S)NC	60 to 64 °C
Cc1ccc2ccc3ccccc3c2c1	65 °C
N#CC(=C1CCCC1)c1nc2ccccc2s1	235 °C
C#CCOc1ccc(N)cc1C(=O)NCCCC	84 °C
CC(O)CCc1ccc(CCC(C)O)cc1 (stereo not drawn)	42 to 46 °C
Nc1cccc(C(c2cccc(N)c2)(C(F)(F)F)C(F)(F)F)c1	86 °C
COc1ccc(C(=O)/C=C/c2cccc(OC)c2OC)c(O)c1	99.5 °C
Cc1ccc(C(=O)O)cc1Br	208 °C

Structure (SMILES)	melting point
COc1ccc2[nH]cc(CCN)c2c1	122 °C
C#CC(=O)O	18 °C
COC(=O)c1cc(Oc2ccc(Cl)cc2Cl)ccc1[N+](=O)[O-]	87 °C
Cc1ncc([N+](=O)[O-])n1CC(O)CCl (stereo not drawn)	77.5 °C
O=C1c2ccccc2C2NCCCN12 (stereo not drawn)	130 to 132 °C
Cc1cc(C(F)(F)F)n2nc(N)c(/N=N/c3ccc4ccccc4c3)c2n1	246 °C
CC(=O)c1cc(-c2ccc(Cl)cc2)oc1C	114 to 115 °C
CCCCCCCOC(=O)CCCCCCC	-10.6 °C
CCCCCCCCCCCCCCCCCC(=O)OC1CCC2(C)C(=CCC3C2CCC2(C)C(C(C)CCCC(C)C)CCC32)C1 (stereo not drawn)	79 to 83 °C
Fc1c(F)c(F)c(I)c(F)c1F	-29 °C
CC(C)(C)OC(=O)N1CCN(c2ccc(CO)cc2)CC1	109 to 111 °C
CSc1nc(N)nc(C(C)C)n1	127 to 130 °C
CC1(C)CC(=O)c2c(C(=O)c3cccs3)noc2C1	131 °C
CC1COc2c(C3(N)CC3)c(F)cc3c(=O)c(C(=O)O)cn1c23 (stereo not drawn)	269 °C
FCC(F)F	-84 °C
NCCCCCCCCCCC(=O)O	191 °C
CCCCCCCCCCCC(=O)OC1OC(CO)C(OC2OC(CO)C(O)C(O)C2O)C(O)C1O (stereo not drawn)	193 to 197 °C
O=C1CCC(c2ccc(NC(=O)c3ccc(F)cc3)cc2)=NN1	285 to 287 °C
